Reference: ChEMBL document CHEMBL5360641, “4'-Ethynyl-2'-deoxy-2'-β-fluoro-2-fluoroadenosine: A Highly Potent and Orally Available Clinical Candidate for the Treatment of HIV-1 Infection” (J Med Chem, 2023)

What was measured:
[1] = test system: HEK-293T; experiment: Cytotoxicity against HEK293T cells assessed as reduction in cell viability upto 100 uM MTT assay; assay type: toxicity, cell-based; conditions: human
[2] = test system: Human immunodeficiency virus 1; experiment: Antiviral activity against HIV1 WAN infected in human PBMC assessed as inhibition of viral replication by measuring reduction in p24 antigen level incubated for 3 to 7 days by ELISA analysis; assay type: functional, organism-based; conditions: Human immunodeficiency virus 1, WAN
[3] = Acute toxicity in Sprague-Dawley rat assessed as effect on food intake at 500 to 2000 mg/kg, IG measured for 14 days; assay type: organism-based; conditions: in vivo, po, 336 h, dose 500-2000 mg/kg, time 14 day
[4] = Cmax in Sprague-Dawley rat at 5 mg/kg, iv measured upto 24 hrs by LC-MS/MS analysis; assay type: ADME, organism-based; parameters: time < 24 hrs, dose 5 mg/kg, route iv; conditions: in vivo
[5] = AUC (0 to t) in male Sprague-Dawley rat at 30 mg/kg, IG measured at 24 hrs LC-MS/MS analysis; assay type: ADME, organism-based; parameters: time 24 hrs, dose 30 mg/kg, route ig; conditions: in vivo, po
[6] = AUC (0 to t) in Sprague-Dawley rat at 5 mg/kg, iv measured upto 24 hrs by LC-MS/MS analysis; assay type: ADME, organism-based; parameters: dose 5 mg/kg, time < 24 hrs, route iv; conditions: in vivo
[7] = AUC (0 to t) in Sprague-Dawley rat at 5 mg/kg, IG measured upto 24 hrs by LC-MS/MS analysis; assay type: ADME, organism-based; parameters: time < 24 hrs, dose 5 mg/kg, route ig; conditions: in vivo, po
[8] = Toxicity in Sprague-Dawley rat assessed as death at 10 to 30 mg/kg, po administered once daily for 4 weeks and measured after 24 hrs post last dose; assay type: organism-based; conditions: in vivo, 696 h, dose 10-30 mg/kg
[9] = Drug uptake in Beagle dog PBMC cells assessed as ((2R,3R,4S,5R)-5-(6-amino-2-fluoro-9H-purin-9-yl)-2-ethynyl-4-fluoro-3-hydroxytetrahydrofuran-2-yl)methyl tetrahydrogen triphosphate formation at 6 to 12 mg/kg, po measured at 2 to 168 hrs by LC-MS/MS analysis; assay type: ADME, organism-based, Canis lupus familiaris; conditions: in vivo, dose lower 6 mg/kg, time lower 2 hrs, dose upper 12 mg/kg, time upper 168 hrs
[10] = AUC (0 to t) in female Sprague-Dawley rat at 100 mg/kg, IG measured at 24 hrs LC-MS/MS analysis; assay type: ADME, organism-based; parameters: time 24 hrs, dose 100 mg/kg, route ig; conditions: in vivo, po
[11] = Half life in Sprague-Dawley rat at 2.5 mg/kg, IG measured upto 24 hrs by LC-MS/MS analysis; assay type: ADME, organism-based; conditions: in vivo, po
[12] = Toxicity in Sprague-Dawley rat assessed as effect on food consumption at 10 to 30 mg/kg, po administered once daily for 4 weeks and measured after 24 hrs post last dose; assay type: organism-based; conditions: in vivo, 696 h, dose 10-30 mg/kg
[13] = test system: Human immunodeficiency virus 1; experiment: Antiviral activity against HIV1 VSV-G pseudotyped virus infected in human HEK293T cells assessed as inhibition of viral growth preincubated for 3 hrs followed by washout and further incubated with compound for 72 hrs by luciferase assay; assay type: functional, organism-based; conditions: Human immunodeficiency virus 1, HEK-293T
[14] = Bioavailability in Sprague-Dawley rat at 10 mg/kg, IG measured upto 24 hrs by LC-MS/MS analysis; assay type: ADME, organism-based; conditions: in vivo, po
[15] = Apparent […] clearance in Sprague-Dawley rat at 5 mg/kg, iv measured upto 24 hrs by LC-MS/MS analysis; assay type: ADME, organism-based; conditions: in vivo
[16] = AUC (0 to t) in male Sprague-Dawley rat at 100 mg/kg, IG measured at 0.5 hrs LC-MS/MS analysis; assay type: ADME, organism-based; parameters: dose 100 mg/kg, time 0.5 hrs, route ig; conditions: in vivo, po
[17] = AUC (0 to t) in female Sprague-Dawley rat at 30 mg/kg, IG measured at 24 hrs LC-MS/MS analysis; assay type: ADME, organism-based; parameters: dose 30 mg/kg, time 24 hrs, route ig; conditions: in vivo, po
[18] = AUC (0 to t) in Sprague-Dawley rat at 2.5 mg/kg, IG measured upto 24 hrs by LC-MS/MS analysis; assay type: ADME, organism-based; parameters: time < 24 hrs, dose 2.5 mg/kg, route ig; conditions: in vivo, po
[19] = Cmax in Sprague-Dawley rat at 5 mg/kg, IG measured upto 24 hrs by LC-MS/MS analysis; assay type: ADME, organism-based; parameters: time < 24 hrs, dose 5 mg/kg, route ig; conditions: in vivo, po
[20] = Cmax in Sprague-Dawley rat at 2.5 mg/kg, IG measured upto 24 hrs by LC-MS/MS analysis; assay type: ADME, organism-based; parameters: time < 24 hrs, dose 2.5 mg/kg, route ig; conditions: in vivo, po
[21] = Bioavailability in Sprague-Dawley rat at 5 mg/kg, IG measured upto 24 hrs by LC-MS/MS analysis; assay type: ADME, organism-based; conditions: in vivo, po
[22] = Tmax in Sprague-Dawley rat at 5 mg/kg, IG measured upto 24 hrs by LC-MS/MS analysis; assay type: ADME, organism-based; conditions: in vivo, po
[23] = Half life in Sprague-Dawley rat at 5 mg/kg, IG measured upto 24 hrs by LC-MS/MS analysis; assay type: ADME, organism-based; conditions: in vivo, po
[24] = AUC (0 to t) in male Sprague-Dawley rat at 30 mg/kg, IG measured at 0.5 hrs LC-MS/MS analysis; assay type: ADME, organism-based; parameters: dose 30 mg/kg, time 0.5 hrs, route ig; conditions: in vivo, po
[25] = Half life in Sprague-Dawley rat at 5 mg/kg, iv measured upto 24 hrs by LC-MS/MS analysis; assay type: ADME, organism-based; conditions: in vivo
[26] = Acute toxicity in Sprague-Dawley rat assessed as death at 500 to 2000 mg/kg, IG measured for 14 days; assay type: organism-based; conditions: in vivo, po, 336 h, dose 500-2000 mg/kg, time 14 day
[27] = AUC (0 to t) in male Sprague-Dawley rat at 100 mg/kg, IG measured at 24 hrs LC-MS/MS analysis; assay type: ADME, organism-based; parameters: time 24 hrs, dose 100 mg/kg, route ig; conditions: in vivo, po
[28] = test system: Human immunodeficiency virus 1; experiment: Antiviral activity against HIV-1 harboring protease V82F/[…] double mutant infected in human C8166 cells assessed as inhibition of viral replication by measuring reduction in p24 antigen level incubated for 3 to 7 days by ELISA analysis; assay type: functional, organism-based; conditions: Human immunodeficiency virus 1, C8166
[29] = test system: Human immunodeficiency virus 1; experiment: Antiviral activity against HIV1 TC-1 infected in human PBMC assessed as inhibition of viral replication by measuring reduction in p24 antigen level incubated for 3 to 7 days by ELISA analysis; assay type: functional, organism-based; conditions: Human immunodeficiency virus 1, TC-1, PBMC
[30] = Acute toxicity in Sprague-Dawley rat assessed as effect on liver damage at 500 to 2000 mg/kg, IG measured on day 15; assay type: organism-based; conditions: in vivo, po, 360 h, dose 500-2000 mg/kg, time 15 day
[31] = Toxicity in Sprague-Dawley rat assessed as effect on body weight at 10 to 30 mg/kg, po administered once daily for 4 weeks and measured after 24 hrs post last dose; assay type: organism-based; conditions: in vivo, 696 h, dose 10-30 mg/kg

For `C#C[C@]1(CO)O[C@@H](n2cnc3c(N)nc(F)nc32)[C@@H](F)[C@@H]1O`, the Activity [1] was “Non-Toxic”, the EC50 [2] was 14.4 nM and the Activity [3] was “Non-Toxic”. The Cmax [4] was 10200 ng/mL, the AUC(0-t) at 24 h [5] was 27100 ng·h/mL and the AUC(0-t) at 24 h [6] was 5290 ng·h/mL. The AUC(0-t) at 24 h [7] was 3630 ng·h/mL, the Activity [8] was “Non-Toxic” and the Drug metabolism [9] was “Metabolite_Detected”. For the same compound, the AUC(0-t) at 24 h [10] was 82500 ng·h/mL, the half-life [11] was 2 h and the Activity [12] was “Non-Toxic”. For the same compound, the EC50 [13] was 0.9 nM, the bioavailability [14] was 76.3% and the CL/F [15] was 16.4 mL/min/kg. It also gave an AUC(0-t) at 0.5 h [16] of 89300 ng·h/mL, an AUC(0-t) at 24 h [17] of 26500 ng·h/mL and an AUC(0-t) at 24 h [18] of 1720 ng·h/mL. It also gave a Cmax [19] of 1230 ng/mL, a Cmax [20] of 630 ng/mL and a bioavailability [21] of 67.5%. For the same compound, the Tmax [22] was 0.56 h, the half-life [23] was 3.2 h and the AUC(0-t) at 0.5 h [24] was 28200 ng·h/mL. The half-life [25] was 1.8 h, the Activity [26] was “Non-Toxic” and the AUC(0-t) at 24 h [27] was 85800 ng·h/mL. The EC50 [28] was 6.75 nM, the EC50 [29] was 6.3 nM and the Activity [30] was “Non-Toxic”. The Activity [31] was “Non-Toxic”.
